Data reported in ChEMBL document CHEMBL4229435, “Synthesis and antimicrobial activity of β-carboline derivatives with N2-alkyl modifications” (2018).
Values after ≈ are worked out from the molar mass of the structure shown.

Key:
Assay type in all cases: functional
Staphylococcus aureus [1] = experiment: Antimicrobial activity against methicillin-resistant Staphylococcus aureus GAI 11112 after 24 hrs by agar plate dilution method; details: GAI 11112, 24 h
Pichia kudriavzevii = experiment: Antimicrobial activity against Candida krusei ATCC 14243 after 24 hrs by agar plate dilution method; details: ATCC 14243, 24 h
Escherichia coli = experiment: Antimicrobial activity against Escherichia coli ATCC 25922 after 24 hrs by agar plate dilution method; details: ATCC 25922, 24 h
Staphylococcus aureus [2] = experiment: Antimicrobial activity against methicillin-sensitive Staphylococcus aureus ATCC 25923 after 24 hrs by agar plate dilution method; details: ATCC 25923, 24 h
[Candida] intermedia = Antimicrobial activity against Candida intermedia GAI 15003 after 24 hrs by agar plate dilution method; details: Sungouiella intermedia, GAI 15003, 24 h
Candida albicans = experiment: Antimicrobial activity against Candida albicans GAI 05108 after 24 hrs by agar plate dilution method; details: GAI 05108, 24 h
Staphylococcus aureus [3] = experiment: Antimicrobial activity against methicillin-resistant Staphylococcus aureus GAI 10153 after 24 hrs by agar plate dilution method; details: GAI 10153, 24 h
Staphylococcus aureus [4] = experiment: Antimicrobial activity against methicillin-resistant Staphylococcus aureus GAI 10152 after 24 hrs by agar plate dilution method; details: GAI 10152, 24 h
Pseudomonas aeruginosa = experiment: Antimicrobial activity against Pseudomonas aeruginosa GAI 12066 after 24 hrs by agar plate dilution method; details: GAI 12066, 24 h
Acinetobacter baumannii = experiment: Antimicrobial activity against Acinetobacter baumannii GAI 07545 after 24 hrs by agar plate dilution method; details: GAI 07545, 24 h
Staphylococcus aureus [5] = experiment: Antimicrobial activity against methicillin-resistant Staphylococcus aureus GAI 10151 after 24 hrs by agar plate dilution method; details: GAI 10151, 24 h

Row | SMILES | MIC (Staphylococcus aureus [1]) | MIC (Pichia kudriavzevii) | MIC (Escherichia coli) | MIC (Staphylococcus aureus [2]) | MIC ([Candida] intermedia) | MIC (Candida albicans) | MIC (Staphylococcus aureus [3]) | MIC (Staphylococcus aureus [4]) | MIC (Pseudomonas aeruginosa) | MIC (Acinetobacter baumannii) | MIC (Staphylococcus aureus [5])
1 | c1ccc2c(c1)c1ccncc1n2-n1c2ccccc2c2ccncc21 | > 1000 µM | > 1000 µM | > 1000 µM | > 1000 µM | 125 µM (≈ 41.8 µg/mL) | > 1000 µM | – | – | – | – | –
2 | C[n+]1ccc2c(c1)[nH]c1ccccc12 | 1000 µM | 125 µM | 1000 µM | > 1000 µM | 125 µM | 500 µM | – | – | – | – | –
3 | Clc1ccc2c(c1)c1cc[n+](Cc3ccccn3)cc1n2-n1c2ccc(Cl)cc2c2cc[n+](Cc3ccccn3)cc21 | – | > 1000 µM | > 1000 µM | > 1000 µM | 500 µM | > 1000 µM | > 1000 µM | > 1000 µM | > 1000 µM | > 1000 µM | > 1000 µM
4 | C[n+]1ccc2c(c1)[nH]c1ccc(Cl)cc12 [NOSTOCARBOLINE] | – | 50 µM | 500 µM | > 1000 µM | > 1000 µM | > 1000 µM | > 1000 µM | > 1000 µM | > 1000 µM | > 1000 µM | > 1000 µM
5 | C[n+]1ccc2c3ccccc3n(-n3c4ccccc4c4cc[n+](C)cc43)c2c1 | 125 µM | 500 µM | 1000 µM | 125 µM | 125 µM | 500 µM | – | – | – | – | –
6 | Clc1ccc2[nH]c3c[n+](Cc4ccccn4)ccc3c2c1 | – | > 1000 µM | > 1000 µM | > 1000 µM | 500 µM | > 1000 µM | > 1000 µM | > 1000 µM | > 1000 µM | > 1000 µM | > 1000 µM
7 | Clc1ccc2[nH]c3c[n+](Cc4ccccc4)ccc3c2c1 | – | 500 µM | > 1000 µM | > 1000 µM | 10 µM | > 1000 µM | 500 µM | 500 µM | > 1000 µM | 500 µM | 500 µM
8 | C[n+]1ccc2c3cc(Cl)ccc3n(-n3c4ccc(Cl)cc4c4cc[n+](C)cc43)c2c1 | – | 500 µM | 500 µM | 50 µM | 50 µM | > 1000 µM | 50 µM | 50 µM | > 1000 µM | > 1000 µM | 500 µM
9 | Clc1ccc2c(c1)c1cc[n+](Cc3ccccc3)cc1n2-n1c2ccc(Cl)cc2c2cc[n+](Cc3ccccc3)cc21 | – | 500 µM | 500 µM | 10 µM | 10 µM | 500 µM | 10 µM | 10 µM | > 1000 µM | 500 µM | 50 µM
10 | c1ccc2c(c1)[nH]c1cnccc12 [NORHARMANE] | 250 µM (≈ 42 µg/mL) | 125 µM (≈ 21 µg/mL) | 250 µM (≈ 42 µg/mL) | > 1000 µM | 125 µM (≈ 21 µg/mL) | 125 µM (≈ 21 µg/mL) | – | – | – | – | –
